Results published in US20260015340A1, “COMPOUND INCLUDING 2,4-DIAMINOPYRIDINE, PREPARATION METHOD THEREFOR, AND PHARMACEUTICAL COMPOSITION CONTAINING SAME AS ACTIVE INGREDIENT FOR PREVENTION OR TREATMENT OF CANCER” (KOREA RESEARCH INSTITUTE OF CHEMICAL TECHNOLOGY, priority 2022, published 2026).
Read-outs that look alike come from different tables or passages of the source.

What was measured:
HPK1 (h) = HPK1 (h) (Homo sapiens (Human), UniProt Q92918); assay: Inhibition against kinase activity of HPK1 (33P-ATP filter assay); type: biochemical
Protocol: Inhibition against kinase activity of HPK1 was measured as follows. Recombinant human HPK1 protein was mixed with the compounds in a reaction solution (8 mM MOPS, pH 7.0, 0.2 mM EDTA, 0.33 mg/mL myelin basic protein, 10 mM magnesium acetate, and 15 μM [gamma-33P-ATP]). The mixture was incubated at room temperature for 40 minutes. The reaction was terminated by adding phosphoric acid at a final concentration of 0.5%. A 10 μL aliquot of the reaction solution was spotted onto a P30 filter, washed four times in 0.425% phosphoric acid solution for 4 minutes each, and washed once with methanol. The filters were dried, and HPK1 activity was measured via scintillation counting. The HPK1 activity observed in the control group free of the compounds was set as 100%, and the inhibition by the compounds was expressed relative to this control value. To calculate the IC50 value, the compounds were diluted in 9 concentrations, starting from a maximum of 1 μM in a threefold serial dilution. The IC50 was defined as the concentration at which 50% inhibition was observed.

MLK3 (h) = MLK3 (h) (Homo sapiens, UniProt Q16584); assay: Inhibition against kinase activity of MLK3 (33P-ATP filter assay); type: biochemical
Protocol: The kinase inhibition activity against MLK3 was measured as follows. Recombinant human […] protein was mixed with the compounds in a reaction solution (8 mM MOPS, pH 7.0, 0.2 mM EDTA, 0.33 mg/mL myelin basic protein, 5 mM DTT, 10 mM magnesium acetate, and 45 μM [gamma-33P-ATP]). The mixture was incubated at room temperature for 40 minutes. The reaction was terminated by adding phosphoric acid at a final concentration of 0.5%. A 10 μL aliquot of the reaction solution was then spotted onto a P30 filter, which was washed four times in 0.425% phosphoric acid solution for 4 minutes each and then washed once in methanol. The filters were dried, and MLK3 activity was measured via scintillation counting. The MLK3 activity observed in the control group free of the compounds was set as 100%, and the inhibition by the compounds was expressed relative to this control value. To calculate the IC50 value, the compounds were diluted in 9 concentrations, starting from a maximum of 1 μM in a threefold serial dilution. The IC50 was defined as the concentration at which 50% inhibition was observed.

[1] = tested on: cisplatin-resistant cell line A2780/cis; assay: Anticancer activity, CCK8 cell viability; type: cell-based; settings: Homo sapiens, A2780cis, 72 h, A2780/cis cells, three days, FIG. 1
Protocol: (§1) The anticancer activity of the MLK3 and HPK1 kinase inhibitor compounds was evaluated using the human ovarian cancer cell line A2780 and the cisplatin-resistant cell line A2780/cis. A2780 and A2780/cis cells were cultured at a density of 4000 cells per well in 96-well plates and stabilized for one day. The compounds 1 to 3 synthesized in Example 1 were serially diluted starting from a concentration of 10 μM and applied to the cells. The treated cells were incubated for three days, and cell viability was measured using CCK8 reagent, with the concentration at which 50% of the cancer cells died expressed as the GI50.

[2] = tested on: human ovarian cancer cell line A2780; assay: Anticancer activity, CCK8 cell viability; type: cell-based; settings: 72 h, A2780 cells, three days, FIG. 1
Protocol: as §1

A549 = assay: Anticancer activity in other cancer cell lines; type: cell-based; settings: Homo sapiens
Protocol: as §1
(§2) Additionally, the anticancer activity of the compounds was also observed in other cancer cell lines (blood cancer, breast cancer, ovarian cancer, lung cancer, and brain cancer), as well as in drug-resistant cancer cell lines (doxorubicin-resistant blood cancer K562/ADM; and paclitaxel-resistant breast cancer MDA-MB-231/PTX).

K562 = assay: Anticancer activity in other cancer cell lines; type: cell-based; settings: Homo sapiens
Protocol: as §1, §2

MDA-MB-231 = assay: Anticancer activity in other cancer cell lines; type: cell-based; settings: Homo sapiens
Protocol: as §1, §2

MDA-MB-453 = assay: Anticancer activity in other cancer cell lines; type: cell-based; settings: Homo sapiens
Protocol: as §1, §2

SH-SY5Y = assay: Anticancer activity in other cancer cell lines; type: cell-based; settings: Homo sapiens
Protocol: as §1, §2

SKOV3 = assay: Anticancer activity in other cancer cell lines; type: cell-based; settings: Homo sapiens, SK-OV-3
Protocol: as §1, §2

U937 = assay: Anticancer activity in other cancer cell lines; type: cell-based; settings: Homo sapiens, U-937
Protocol: as §1, §2

[3] = tested on: doxorubicin-resistant blood cancer K562/ADM; assay: Anticancer activity in other cancer cell lines; type: cell-based; settings: Homo sapiens
Protocol: as §1, §2

[4] = tested on: paclitaxel-resistant breast cancer MDA-MB-231/PTX; assay: Anticancer activity in other cancer cell lines; type: cell-based; settings: Homo sapiens
Protocol: as §1, §2

Human PBMC = assay: IL-2 measurement for T cell activation enhancement; type: cell-based; settings: CD3/CD28 Dynabeads, 6 days, FIG. 2
Protocol: Human PBMC was seeded at a density of 2×10^5 cells per well in a 96-well plate. The cells were pretreated for one hour with serial dilutions of the compounds 1 to 3 synthesized in Example 1 starting from 3 μM. Afterward, CD3/CD28 Dynabeads were added to the cells at a 1:1 ratio and incubated for 6 days. After incubation, the cells and media were analyzed using the Sartorius human T cell activation cell and cytokine profiling kit with the iQue system. IL-2, a biomarker used to assess T cell activation, was measured. The results were calculated by setting the positive control group (treated with Dynabeads alone) as 100%.

[5] = HPK1 (h), 15 μM ATP, read-out: IC50
[6] = approximate value, read-out: IC50 value for HPK1 inhibition
[7] = MLK3 (h), 45 μM ATP, read-out: IC50
[8] = approximate value, read-out: IC50 value for MLK3 inhibition

HPK1 (h), sequence (Q92918 whole entry): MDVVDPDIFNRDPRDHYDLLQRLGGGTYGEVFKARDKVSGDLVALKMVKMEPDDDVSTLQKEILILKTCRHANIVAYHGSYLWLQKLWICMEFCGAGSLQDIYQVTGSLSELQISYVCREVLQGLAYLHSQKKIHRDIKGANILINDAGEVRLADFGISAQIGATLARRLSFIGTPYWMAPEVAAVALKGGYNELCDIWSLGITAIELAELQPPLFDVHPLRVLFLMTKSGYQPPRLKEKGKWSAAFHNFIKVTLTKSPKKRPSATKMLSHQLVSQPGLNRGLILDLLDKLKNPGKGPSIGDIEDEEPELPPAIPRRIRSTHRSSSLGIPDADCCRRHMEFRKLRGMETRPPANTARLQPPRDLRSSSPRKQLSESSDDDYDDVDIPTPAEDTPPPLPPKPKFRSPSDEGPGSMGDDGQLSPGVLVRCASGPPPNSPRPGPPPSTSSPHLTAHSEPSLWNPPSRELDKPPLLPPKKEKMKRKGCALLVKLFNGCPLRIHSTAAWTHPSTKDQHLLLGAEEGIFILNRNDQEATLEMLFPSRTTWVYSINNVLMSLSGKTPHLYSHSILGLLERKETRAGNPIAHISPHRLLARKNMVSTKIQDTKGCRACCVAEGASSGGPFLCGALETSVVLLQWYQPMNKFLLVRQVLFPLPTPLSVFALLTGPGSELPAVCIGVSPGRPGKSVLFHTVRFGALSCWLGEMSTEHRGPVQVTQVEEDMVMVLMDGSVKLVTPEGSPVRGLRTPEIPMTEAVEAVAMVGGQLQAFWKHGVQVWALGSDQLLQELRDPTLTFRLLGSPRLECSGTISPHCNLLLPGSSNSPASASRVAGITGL
MLK3 (h), sequence (Q16584 whole entry, looked up): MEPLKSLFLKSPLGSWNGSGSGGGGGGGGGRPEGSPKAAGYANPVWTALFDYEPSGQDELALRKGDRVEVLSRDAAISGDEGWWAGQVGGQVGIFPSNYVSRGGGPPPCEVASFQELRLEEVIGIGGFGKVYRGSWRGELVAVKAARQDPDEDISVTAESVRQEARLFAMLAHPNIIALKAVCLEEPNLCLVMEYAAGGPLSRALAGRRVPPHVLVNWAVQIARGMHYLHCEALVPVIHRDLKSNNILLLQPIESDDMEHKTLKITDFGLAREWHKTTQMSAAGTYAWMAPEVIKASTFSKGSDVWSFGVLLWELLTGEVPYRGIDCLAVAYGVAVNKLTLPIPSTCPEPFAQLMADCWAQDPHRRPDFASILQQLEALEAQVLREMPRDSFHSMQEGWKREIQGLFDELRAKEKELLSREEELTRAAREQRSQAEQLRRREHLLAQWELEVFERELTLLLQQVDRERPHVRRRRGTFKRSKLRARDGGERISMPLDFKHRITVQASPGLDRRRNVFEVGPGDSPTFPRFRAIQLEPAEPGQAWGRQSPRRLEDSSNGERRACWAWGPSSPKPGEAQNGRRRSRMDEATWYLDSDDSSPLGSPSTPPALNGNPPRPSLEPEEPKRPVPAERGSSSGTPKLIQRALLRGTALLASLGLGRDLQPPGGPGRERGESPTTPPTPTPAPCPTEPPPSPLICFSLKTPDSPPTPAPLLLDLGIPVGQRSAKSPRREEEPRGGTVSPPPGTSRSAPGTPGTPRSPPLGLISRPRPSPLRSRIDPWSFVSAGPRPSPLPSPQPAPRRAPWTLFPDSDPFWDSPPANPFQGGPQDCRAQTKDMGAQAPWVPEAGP

Row | Compound | IC50 (HPK1 (h); [5]) | IC50 (HPK1 (h); [6]) | IC50 (MLK3 (h); [7]) | IC50 (MLK3 (h); [8]) | GI50 [1] | GI50 [2] | GI50 (A549) | GI50 (K562) | GI50 (MDA-MB-231) | GI50 (MDA-MB-453) | GI50 (SH-SY5Y) | GI50 (SKOV3) | GI50 (U937) | GI50 [3] | GI50 [4] | IL-2 levels (T cell activation) (Human PBMC)
1 | CC1(C)OC(=O)c2ccc(Nc3nc(Nc4ccc5c(c4)CCNC5)ncc3Cl)cc21 [Compound 1, 5-((5-chloro-2-((1,2,3,4-tetrahydroisoquinolin-6-yl)amino)pyrimidin-4-yl)amino)-3,3-dimethylisobenzofuran-1(3H)-one] | 1 to 100 nM | ~30 nM | 100 to 500 nM | ~140 nM | ~400 nM | ~200 nM | 1610 nM | 430 nM | 1250 nM | 1020 nM | 390 nM | 1700 nM | 290 nM | 3740 nM | 990 nM | increased IL-2 levels
2 | CC1(C)OC(=O)c2cc(Nc3nc(Nc4ccc5c(c4)CCNC5)ncc3Cl)ccc21 [Compound 2, 6-((5-chloro-2-((1,2,3,4-tetrahydroisoquinolin-6-yl)amino)pyrimidin-4-yl)amino)-3,3-dimethylisobenzofuran-1(3H)-one] | 1 to 100 nM | ~50 nM | 100 to 500 nM | ~200 nM | ~310 nM | ~210 nM | 1150 nM | 1070 nM | 1030 nM | 2900 nM | 280 nM | 1500 nM | 440 nM | 2280 nM | 770 nM | increased IL-2 levels
3 | CC1(C)OC(=O)c2ccc(Nc3ncc(Cl)c(Nc4ccc5c(c4)C(C)(C)OC5=O)n3)cc21 [Compound 3, 5,5′-((5-Chloropyrimidine-2,4-diyl)bis(azanediyl))bis(3,3-dimethylisobenzofuran-1(3H)-one)] | 500 to 1000 nM | ~900 nM | > 1000 nM | – | – | – | > 10000 nM | > 10000 nM | 1350 nM | 1070 nM | 550 nM | > 10000 nM | > 10000 nM | > 10000 nM | 1110 nM | –
